Results taken from patent US11332470B2, “CXCR4 inhibitors and uses thereof” (X4 Pharmaceuticals, Inc., priority 2016, dated 2022).

What was measured:
[1] = Caco-2 permeability assay; conditions: human, Caco-2, pH 7.4
Experimental: The goal of this assay was to evaluate the intestinal absorption potential of drug candidates using Caco-2 cell lines.
1. Prewarm Prewarm HBSS Buffer in 37° C. water bath
2. Sonicate Take compounds from −20° C., sonicate for a few minutes (no less than 1 minute)
• Donor solution buffer: For A-to-B Direction: HBSS buffer with 0.3% DMSO and 5 μM LY: add 150 μL DMSO and 50 μL LY (5 mM) into 50 ml HBSS buffer (pH 7.4). HBSS buffer with 0.1% DMSO and 5 μM LY: add 50 μL DMSO and 50 μL LY (5 mM) into 50 mL HBSS buffer (pH 7.4). For B-to-A Direction: HBSS buffer with 0.3% DMSO: add 150 μL DMSO into 50 ml HBSS buffer (pH 7.4). HBSS buffer with 0.1% DMSO: add 50 μL DMSO into 50 ml HBSS buffer (pH 7.4). Receiver Solution Buffer: For A-to-B Direction: Prepare HBSS buffer with 0.4% DMSO: add 200 μL DMSO into 50 ml HBSS buffer (pH 7.4). For B-to-A Direction: Prepare HBSS buffer with 0.4% DMSO and 5 μM LY: add 200 μL DMSO and 50 μL LY (5 mM) into 50 ml HBSS buffer (pH 7.4).
4. Measure TEER Take cell culture plate out of incubator, wash the cell monolayers with HBSS buffer, and then measure TEER values at Rm temperature. 5. Centrifuge Centrifuge the compound solution (from step 3) at 4000 rpm for 5 min before loading to donor chambers. 6. Dosing Add solution based on the volumes listed in the following table (make sure to take extra 100 μL of donor sample for TO as Backup).
7. Apical LYT0 samples To determine LY concentration in the apical chamber, take 100 μL sample from apical chambers into an opaque plate for LYT0. 8. Prewarm Prewarm apical and basolateral plates at 37° C. for about 5 min, then begin transport by placing the apical plate onto basolateral plate. 9. Incubation Keep the plates in incubator at 37° C. for 90 min. 10.
Prepare Working Solution in MeOH/H2O (1:1)
• Prepare 1×solution: 3 μL (20×)+57 μL of 0.4% DMSO HBSS+60 μL ACN with IS (Osalmid or Imipramine)−120 μL (1×) 11. Transport termination Separate the apical plate from the basolateral plate after 90-min incubation. 12. Measure LY Take 100 μL samples from basolateral plate to an opaque plate as LYT90. 13. Measure LY concentrations for LYT0 and LYT90 by Fluorometer (at excitation of 485 nm/emission of 535 nm). 14.
Study details: Test concentration 10 μM
Test systems: Caco-2/HBSS solution
Incubation conditions: 0, 90 min at 37° C.
Sample size: Duplicates (n=2)
Bioanalytical method: LC-MS/MS
For Millicell-24 Cell Culture Plates: surface area of the membrane=0.7 cm^2, VA=0.8 mL (A-to-B) or 0.4 mL (B-to-A)
The compound numbers correspond to the compound numbers in Table 1.

[2] = target: T1, CXCR4 (Jurkat cells expressing CXCR4) (Homo sapiens, UniProt P61073); assay: Chemokine (CXCL12-AF647) binding inhibition assay; conditions: CXCL12-AF647 25 ng/mL, read-out: IC50 CXCL-12 binding Jurkat
T1 construct: Jurkat cells expressing CXCR4; endogenous in cells; host or cells: Jurkat
Experimental: Chemokine (CXCL12-AF647) Binding Inhibition Assay
Jurkat cells expressing CXCR4 were washed once with assay buffer (Hanks' balanced salt solution with 20 mM HEPES buffer and 0.2% bovine serum albumin, pH 7.4) and then incubated for 15 min at room temperature with the test compounds diluted in assay buffer at dose-dependent concentrations. Subsequently, CXCL12-AF647 (25 ng/mL) was added to the compound-incubated cells. The cells were incubated for 30 min at room temperature. Thereafter, the cells were washed twice in assay buffer, fixed in 1% paraformaldehyde in PBS, and analyzed on the FL4 channel of a FACSCalibur flow cytometer equipped with a 635-nm red diode laser (Becton Dickinson, San Jose, Calif., USA).
The percentages of inhibition of CXCL12-AF647 binding were calculated according to the formula: [1−((MFI−MFINC)/(MFIPC−MFINC))]×100 where MFI is the mean fluorescence intensity of the cells incubated with CXCL12-AF647 in the presence of the inhibitor, MFINC is the mean fluorescence intensity measured in the negative control (i.e., autofluorescence of unlabeled cells), and MFIPC is the mean fluorescence intensity of the positive control (i.e., cells exposed to CXCL12-AF647 alone).

CXCR4 (U87.CXCR4 cells) = target: T2, CXCR4 (U87.CXCR4 cells) (Homo sapiens, UniProt P61073); assay: Intracellular CXCL-12-induced calcium mobilization assay (FLIPR); type: cell-based; conditions: CXCL-12 25-50 ng/mL, read-out: IC50 CXCL-12 Ca2+ flux U87.CXCR4+
T2 construct: expressed in transfected cells; host or cells: U87 (U87.CXCR4)
Experimental: Intracellular CXCL-12-Induced Calcium Mobilization Assay
Intracellular calcium mobilization induced by chemokines or chemokine-derived peptides were evaluated using a calcium responsive fluorescent probe and a FLIPR system. The CXCR-4 transfected U87 cell line (U87.CXCR4) cells were seeded in gelatine-coated black-wall 96-well plates at 20,000 cells per well and incubated for 12 hours. Cells were then loaded with the fluorescent calcium probe Fluo-2 acetoxymethyl at 4 μM final concentration in assay buffer (Hanks' balanced salt solution with 20 mM HEPES buffer and 0.2% bovine serum albumin, pH 7.4) for 45 min at 37° C. The intracellular calcium mobilization induced by the CXCL-12 (25-50 ng/mL) was then measured at 37° C. by monitoring the fluorescence as a function of time in all the wells simultaneously using a fluorometric imaging plate reader (FLIPR Tetra, Molecular Devices).

T1 sequence (P61073 whole entry): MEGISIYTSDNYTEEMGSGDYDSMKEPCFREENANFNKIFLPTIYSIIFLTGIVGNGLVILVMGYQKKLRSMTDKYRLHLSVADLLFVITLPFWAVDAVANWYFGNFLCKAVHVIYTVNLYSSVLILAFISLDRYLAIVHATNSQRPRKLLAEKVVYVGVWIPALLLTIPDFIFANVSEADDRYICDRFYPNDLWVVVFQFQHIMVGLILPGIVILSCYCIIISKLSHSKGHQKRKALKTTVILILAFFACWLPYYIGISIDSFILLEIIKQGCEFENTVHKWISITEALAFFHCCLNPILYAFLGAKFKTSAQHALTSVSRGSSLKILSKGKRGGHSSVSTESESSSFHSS
T2 sequence (P61073 whole entry): as above

Row | Structure (SMILES) | Papp A→B at 90 min, 10 μM [1] | Papp B→A at 90 min, 10 μM [1] | efflux ratio at 90 min, 10 μM [1] | IC50 [2] | IC50 (CXCR4 (U87.CXCR4 cells))
1 | Cc1cccnc1C1CCCN1Cc1nc2cccc(N3CCN(C)CC3)n2c1Br (centres unmarked) [Compound I-7, 3-bromo-5-(4-methylpiperazin-1-yl)-2-((2-(3-methylpyridin-2-yl)pyrrolidin-1-yl)methyl)imi-dazo[1,2-a]pyridine] | 0.1 to 10 ×10⁻⁶ cm/s | 10 to 30 ×10⁻⁶ cm/s | 0.1 to 10 | 100 to 1000 nM | 100 to 1000 nM
2 | Cc1cccnc1C1CCCN1Cc1nccn1CC1CCN(C)CC1 (centres unmarked) [Compound I-52] | 0.1 to 10 ×10⁻⁶ cm/s | 10 to 30 ×10⁻⁶ cm/s | 0.1 to 10 | 0.01 to 100 nM | 0.01 to 100 nM
3 | CN1CCN(c2c(CN3CCCC3c3ccccn3)nc3ccccn23)CC1=O (centres unmarked) [Compound I-85] | 0.1 to 10 ×10⁻⁶ cm/s | > 30 ×10⁻⁶ cm/s | 0.1 to 10 | 100 to 1000 nM | ≥ 1000 nM
4 | Cc1cccnc1C1CCCN1Cc1nc2cccc(N3CCN4CCCC4C3)c2[nH]1 (centres unmarked) [Compound I-48] | 0.1 to 10 ×10⁻⁶ cm/s | 10 to 30 ×10⁻⁶ cm/s | 0.1 to 10 | 0.01 to 100 nM | 0.01 to 100 nM
5 | CN1CCC(n2ccnc2CN2CCCC2c2ccccn2)CC1 (centres unmarked) [Compound I-55] | 0.1 to 10 ×10⁻⁶ cm/s | 10 to 30 ×10⁻⁶ cm/s | 0.1 to 10 | 100 to 1000 nM | ≥ 1000 nM
6 | CN1CCN(c2cccc3[nH]c(CN4CCCC4c4nccn4C)nc23)CC1 (centres unmarked) [Compound I-51] | 0.1 to 10 ×10⁻⁶ cm/s | 10 to 30 ×10⁻⁶ cm/s | 0.1 to 10 | 100 to 1000 nM | ≥ 1000 nM
7 | Cc1cccnc1C1CCCN1Cc1nc2c(N3CCN(C)CC3)cccc2[nH]1 (centres unmarked) [Compound I-11] | 0.1 to 10 ×10⁻⁶ cm/s | 10 to 30 ×10⁻⁶ cm/s | 0.1 to 10 | 0.01 to 100 nM | 0.01 to 100 nM
8 | CN1CCN(c2cccc3nc(CN4CCCC4c4ncc[nH]4)cn23)CC1 (centres unmarked) [Compound I-50] | 0.1 to 10 ×10⁻⁶ cm/s | 10 to 30 ×10⁻⁶ cm/s | 0.1 to 10 | ≥ 1000 nM | ≥ 1000 nM
9 | CN1CC=C(c2c(CN3CCCC3c3ccccn3)nc3ccccn23)CC1 (centres unmarked) [Compound I-79] | 0.1 to 10 ×10⁻⁶ cm/s | > 30 ×10⁻⁶ cm/s | 0.1 to 10 | 0.01 to 100 nM | 0.01 to 100 nM
10 | Cc1cccnc1C1CCCN1Cc1ccccn1 (centres unmarked) [Compound I-39] | 10 to 30 ×10⁻⁶ cm/s | 10 to 30 ×10⁻⁶ cm/s | 0.1 to 10 | 100 to 1000 nM | ≥ 1000 nM
11 | Cc1cccnc1C1CCCN1Cc1nc2cccc(N3CCN(C)CC3)n2c1CO (centres unmarked) [Compound I-8, (5-(4-methylpiperazin-1-yl)-2-((2-(3-methylpyridin-2-yl)pyrrolidin-1-yl)methyl)imidazo[1,2-a]pyridin-3-yl)methanol] | 0.1 to 10 ×10⁻⁶ cm/s | 10 to 30 ×10⁻⁶ cm/s | > 30 | 0.01 to 100 nM | 100 to 1000 nM
12 | CN1CCN(c2c(CN3CCCC3c3ncccc3F)nc3ccccn23)CC1 (centres unmarked) [Compound I-60] | 10 to 30 ×10⁻⁶ cm/s | 10 to 30 ×10⁻⁶ cm/s | 0.1 to 10 | 0.01 to 100 nM | 0.01 to 100 nM
13 | N#CCCc1c(CN2CCCC2c2ccccn2)nc2ccccn12 (centres unmarked) [Compound I-82] | 10 to 30 ×10⁻⁶ cm/s | > 30 ×10⁻⁶ cm/s | 0.1 to 10 | 100 to 1000 nM | ≥ 1000 nM
14 | CN1CCN(c2c(CN3CCCC3c3ccccn3)nc3cc(F)ccn23)CC1 (centres unmarked) [Compound I-62] | 0.1 to 10 ×10⁻⁶ cm/s | 10 to 30 ×10⁻⁶ cm/s | 0.1 to 10 | 0.01 to 100 nM | 0.01 to 100 nM
15 | c1ccc(C2CCCN2Cc2nc3ccccn3c2N2CCOCC2)nc1 (centres unmarked) [Compound I-91] | > 30 ×10⁻⁶ cm/s | > 30 ×10⁻⁶ cm/s | 0.1 to 10 | 100 to 1000 nM | ≥ 1000 nM
16 | Cc1cccnc1C1CCCN1Cc1nc2cccc(N3CCN(C)CC3)n2c1F (centres unmarked) [Compound I-34] | 0.1 to 10 ×10⁻⁶ cm/s | 10 to 30 ×10⁻⁶ cm/s | 0.1 to 10 | 100 to 1000 nM | 100 to 1000 nM
17 | Cc1cccnc1C1CCCCN1Cc1cn2c(N3CCN(C)CC3)cccc2n1 (centres unmarked) [Compound I-1, 5-(4-methylpiperazin-1-yl)-2-((2-(3-methylpyridin-2-yl)piperidin-1-yl)methyl)imidazo[1,2-a]-pyridine] | 0.1 to 10 ×10⁻⁶ cm/s | 10 to 30 ×10⁻⁶ cm/s | 0.1 to 10 | 0.01 to 100 nM | 100 to 1000 nM

More lines, now with the values ahead:

Row | Papp A→B at 90 min, 10 μM [1] | Papp B→A at 90 min, 10 μM [1] | efflux ratio at 90 min, 10 μM [1] | IC50 [2] | IC50 (CXCR4 (U87.CXCR4 cells)) | Structure (SMILES)
18 | > 30 ×10⁻⁶ cm/s | > 30 ×10⁻⁶ cm/s | 0.1 to 10 | 100 to 1000 nM | ≥ 1000 nM | Cc1cccnc1C1CCCN1Cc1nccn1CC1CCN(c2ccccn2)CC1 (centres unmarked) [Compound I-109]
19 | 0.1 to 10 ×10⁻⁶ cm/s | 10 to 30 ×10⁻⁶ cm/s | 0.1 to 10 | 100 to 1000 nM | ≥ 1000 nM | CN1CCN(C(=O)c2c(CN3CCCC3c3ccccn3)nc3ccccn23)CC1 (centres unmarked) [Compound I-123]
20 | 0.1 to 10 ×10⁻⁶ cm/s | 10 to 30 ×10⁻⁶ cm/s | 0.1 to 10 | 0.01 to 100 nM | 0.01 to 100 nM | Cc1cccnc1C1CCCN1Cc1nccn1CC1CCN(C2CC2)CC1 (centres unmarked) [Compound I-107]
21 | 0.1 to 10 ×10⁻⁶ cm/s | > 30 ×10⁻⁶ cm/s | 0.1 to 10 | 100 to 1000 nM | ≥ 1000 nM | Cc1cccnc1C1CCCN1Cc1ncccc1CN1CCOCC1 (centres unmarked) [Compound I-118]
22 | 0.1 to 10 ×10⁻⁶ cm/s | > 30 ×10⁻⁶ cm/s | 0.1 to 10 | 0.01 to 100 nM | 100 to 1000 nM | CN1CCN(c2c(C3CCCN3Cc3ccccn3)nc3ccccn23)CC1 (centres unmarked) [Compound I-101]
23 | 0.1 to 10 ×10⁻⁶ cm/s | 10 to 30 ×10⁻⁶ cm/s | 0.1 to 10 | 0.01 to 100 nM | ≥ 1000 nM | Cc1cccnc1C1CCCN1Cc1nccn1CCCCN1CCOCC1 (centres unmarked) [Compound I-111]
24 | 0.1 to 10 ×10⁻⁶ cm/s | 10 to 30 ×10⁻⁶ cm/s | > 30 | 0.01 to 100 nM | 100 to 1000 nM | CN1CCC(Cn2ccnc2CN2CCCC2c2ccccn2)CC1 (centres unmarked) [Compound I-112]
25 | 10 to 30 ×10⁻⁶ cm/s | > 30 ×10⁻⁶ cm/s | 0.1 to 10 | 100 to 1000 nM | ≥ 1000 nM | Cc1cccnc1C1CCCN1Cc1nccn1CC1CCOCC1 (centres unmarked) [Compound I-110]
